Here are results for five compounds from patent US20100093794A1, “Use of a Compound in Obtaining Cytoskeleton Blockage and Cell Elongation” (priority 2006, published 2010).

Starred links: 1 amine or outer side, 2 acyl side, 3 side chain; linkers in the order of their positions; H or OH if unused. Positions of bridges follow the written chain, without caps; N, C: chain ends. Non-standard residues stand in square brackets, D forms with d. Residues, ends and D or L forms follow the SMILES beside them. Trp(2-yl) = O=C([C@H](Cc1c([*:3])[nH]c2ccccc12)N[*:1])[*:2]; Leu(4R-OH,5-OH) = C[C@](O)(CO)C[C@H](N)C(=O)O; cisHyp = O=C(O)[C@@H]1C[C@H](O)CN1

The test system of one test is H1299 cells. As to the kind of experiment: Cell cycle analysis (flow cytometer). Format: cell-based. The settings on record: 24 hours. The protocol: (§1) The A549 cell line was derived from lung carcinoma of a person. The H1299 cell line has a homozygous deletion of the P53 gene that was derived from a non-small cell lung adenocarcinoma tumor. MCF-7 cell line was derived from breast adenocarcinoma of a person. Hela cell line was derived from cervical carcinoma of a person. These cell lines are cultured in RPMI-1640 medium supplemented with 10% fetal bovine serum, 100 units/ml penicillin, 100 ug/ml streptomycin, and L-glutamine (0.03%, w/v), and cells were incubated at 37° C. and 5% CO2.
(§2) The cells were plated at a density of 1×10^6 cells per p60 dish for 16-20 hours. Then the cells were treated with PT-262 for 24 hours. After drug treatment, the cells were washed with PBS and re-treated with trypsin, the cells were suspended and collected in a 15 ml centrifuge tube. After centrifugation at 1500 rpm for 5 minutes, the cells were fixed with 70% ethanol and stored at −20° C. for at least 2 hours. After being re-centrifuged at 1500 rpm for 5 minutes, the cell pellets were incubated with 4 ug/ml propidium iodine solution containing 1% Triton X-100 and 100 ug/ml RNase A for 30 minutes. The cell cycle was then analyzed by flow cytometer, and the percentage of cell cycle was quantified by ModFit Lt software (Ver. 2.0).

Test [1] relates to A549 lung carcinoma cells. As to the kind of experiment: Mitochondrial membrane potential (DiOC6, flow cytometer). In kind it is cell-based, human. The settings on record: as the drug concentration increased, 24 hours. The protocol:
The cells were cultured in 60-mm Petri dish at a density of 5×10^5 cells. Then the cells were treated with PT-262 of different concentrations for 24 hours. After drug treatment, the cells were washed with PBS and were trypsinized, the cells were suspended and were counted by a hemocytometer. The cells were collected by centrifugation, and the pellets were resuspended in 70% ethanol and stored at […]20° C. for at least 2 hours. After centrifugation, the pelts were incubated with 0.5 uM DiOC6 for 30 minutes. Then cell pellets were collected by centrifugation and resuspended in 0.5 ml ice-cold PBS. Finally, fluorescence intensities of DiOC6 were analyzed on a flow cytometer.

Another test relates to caspase-3. As to the kind of experiment: Western blot. In kind it is cell-based. The note with it: cancer cells. The protocol: (§3) At the end of treatment, the cells were lysed in the cell extract buffer containing the protease inhibitors. Amounts of proteins in samples were subjected to electrophoresis using 10-12 sodium dodecyl sulfate-polyacrylamide gels. After electrophoretic transfer of proteins onto polyvinylidene difluoride (PVDF) membranes, the membranes were dipped in 5% degreased milk containing first antibody for 24 hours at 4° C. After being washed three times with TTBS buffer solution for 5-15 minutes at room temperature, the PVDF membranes are dipped in 5% degreased milk containing second antibody for 1-2 hours at room temperature. And then the membranes were re-washed three times with TTBS buffer solution for 5-15 minutes at room temperature. Finally, the protein bands were visualized using the enhanced chemiluminescence detection system.

The subject of another test is phospho-cdc2. As to the kind of experiment: Western blot. In kind it is cell-based. The settings on record: cancer cells; 5-20 uM, 24 hours. The procedure: as §3
The subject of the next test is phospho-ERK. In words: Western blot. The note with it: cancer cells; after treatment with PT-262. In kind it is cell-based. The procedure: as §3
The test system of a further test is Ras. As to the kind of experiment: Western blot. Format: cell-based. The settings on record: cancer cells; after treatment with PT-262. The protocol:
as §3

The test system of another test is cyclin B1. As to the kind of experiment: Western blot. Format: cell-based. The note with it: cancer cells; 5-20 uM, 24 hours. The procedure:
as §3

For test [2], the system named is A549 lung carcinoma cells. In words: Cell growth assay. In kind it is cell-based, human. The settings on record: 24 hours. The protocol:
as §1
The cells were plated at a density of 5×10^5 cells per p100 Petri dish for 16-20 hours. Then the cells were treated with PT-262 of different concentrations for 24 hours. After drug treatment, the cells were washed with PBS and re-treated with trypsin, the cells were suspended and were counted by a hemocytometer.

The subject of test [3] is A549 lung carcinoma cells. As to the kind of experiment: Cell cycle analysis (flow cytometer). Format: cell-based, human. The settings on record: 24 hours. The protocol:
as §1, §2

Test [4] relates to MCF-7 breast carcinoma cells. As to the kind of experiment: MTT assay (cytotoxicity). Format: cell-based, human. The procedure: as §1
(§4) Briefly, the cells were plated in 96-well plates at a density of 1×10^4 cells/well for 16-20 hours. Then the cells were treated with pt-262 for 24 hours in serum-free RPMI-1640 medium. After drug treatment, the cells were washed with phosphate-buffered saline (PBS), and were re-cultured in complete RPMI-1640 medium for 48 hours. Subsequently, the medium was replaced and the cells were incubated with 500 ug/ml MTT in complete RPMI-1640 medium for 4 hours. The surviving cells were dissolved in DMSO after removing the MTT medium, and was measured at 565 nm using a ELISA reader.

The test system of test [5] is Hela cervical carcinoma cells. In words: MTT assay (cytotoxicity). Format: cell-based, human. The protocol:
as §1, §4

The test system of test [6] is A549 lung carcinoma cells. In words: Cytoskeleton staining and confocal microscope: cell elongation. In kind it is cell-based, human. The protocol: (§5) The cells were cultured on coverslips kept in a p60 Petri dish, and the coverslips were kept in a CO2 incubator for 16-20 hours. After being treated with or without PT-262, the cells were fixed in 4% parafomaldehyde solution for 60 minutes at 37° C. Then the coverslips were washed three times with PBS. The F-actin and β-tubulin were stained with 20 U/ml BODIPY FL phallacidin and anti-β-tubulin Cy3 for 30 minutes at 37° C., respectively. Finally, the nuclei were stained with 2.5 ug/ml Hoechst 33258 for 30 minutes. And the cells were added with 80% Glycerin and sealed with nail varnish. The samples were examined under a Leica confocal laser scanning microscope.

A further test deals with F-actin. As to the kind of experiment: Cytoskeleton staining and confocal microscope: actin filament (F-actin). In kind it is cell-based, human. The procedure: as §5
Test [7] has as its system human A549 lung carcinoma cells. In words: MTT assay (cytotoxicity). In kind it is cell-based. The protocol:
as §1, §4

The next test concerns Microtubule. In words: Cytoskeleton staining and confocal microscope: microtubule (β-tubulin). In kind it is cell-based, human. The settings on record: for red fluorescence intensity of β-tubulin: A549, 50 nM, 24 hours; for microtubule polymerization: comparison of cytoskeleton inhibitors. The protocol: as §5
The next test relates to terminal cancer patients. The note with it: cited from earlier work.
[8] abbreviates: Homo sapiens, treatment for 24 hours, at cell viability of 50%.
[9] abbreviates: lung carcinoma cells, comparison of cytoskeleton inhibitors.
Where [10] appears, read: comparison of cytoskeleton inhibitors.

Regarding `O=C1C(N2CCCCC2)=C(Cl)C(=O)c2ncccc21` [PT-262, 7-chloro-6-piperidin-1-yl-quinoline-5,8-dione], the G0/G1 fractions entry (in the test with H1299 cells; in test [3]) was “decreased” throughout. In addition, the G2/M fractions entry (in the test with H1299 cells; in [3]) was “increased” each time. Also, the Mitochondrial membrane potential result in test [1] is given as “noticeably inhibited”. The caspase-3 activation result in the test with caspase-3 is reported as “noticeably induced”. The “levels of phospho-cdc2 protein” value in the test on phospho-cdc2 is listed as “noticeably decreased”. The “expression level of phospho-ERK” value in the test on phospho-ERK is reported as “decreased”. Besides, in the test with Ras, the “expression level of Ras” value is on record as “decreased”. Also, the “levels of cyclin B1 protein” value with cyclin B1 is “noticeably decreased”. Moreover, the growth arrest entry in test [2] (10 uM) is recorded as “almost completely induced”. For the same compound, the cell growth entry in [2] (5-10 uM) is listed as “concentration-dependently inhibited”. The cell survival ratio result in test [4] (1-10 uM, 24 hours) was “decreased as the concentration increased”; in test [5] (1-10 uM, 24 hours), “decreased as the concentration increased”; in test [7] (1-10 uM, 24 hours), “decreased as the concentration increased”. Moreover, the IC50 lay in the range of 2 to 4 µM in test [4] (Homo sapiens, MCF7, treatment for 24 hours, at cell viability of 50%); 2 to 4 µM in test [5] (setting [8]); 2 to 4 µM in [7] (setting [8]). Also, the cell elongation result in test [6] (A549, 2 uM) was “induced”; in test [6] (setting [9]), “increased”. In test [6] (A549, Leica confocal software), the “cell length of some cells” value was determined as 160 um. In [6] (A549, untreated 39.2 um, Leica confocal software), this compound showed an average cell length of 65.3 um. The F-actin polymerization result in the test on F-actin (A549, 2 uM) is on record as “induced”. In addition, the actin polymerization result in the test on F-actin (setting [10]) is given as “induction”.

In the case of `COc1cc2c(c(OC)c1OC)-c1ccc(OC)c(=O)cc1[C@@H](NC(C)=O)CC2` [colchichine], in the test with Microtubule, the “red fluorescence intensity of β-tubulin” value was “reduced” and the microtubule polymerization result is listed as “inhibiting”. The cell elongation entry in test [6] (setting [9]) is “didn't induce”.

For the compound `C=C1[C@@H](C)[C@H]2[C@H](Cc3ccccc3)NC(=O)[C@]23OC(=O)/C=C/[C@H](O)CCC[C@@H](C)C/C=C/[C@H]3[C@@H]1O` [cytochalasin B, reference compound], the cell elongation result in [6] (setting [9]) is listed as “didn't induce”. The actin polymerization result in the test on F-actin (setting [10]) is on record as “prevented”.

As to `CC(=O)O[C@H]1C(=O)[C@@]2(C)[C@H]([C@H](OC(=O)c3ccccc3)[C@]3(O)C[C@H](OC(=O)[C@H](O)[C@@H](NC(=O)c4ccccc4)c4ccccc4)C(C)=C1C3(C)C)[C@]1(OC(C)=O)CO[C@@H]1C[C@@H]2O` [paclitaxel], in the test with terminal cancer patients (40 terminal cancer patients), the suppression rate is recorded as 30%. In addition, the “patients reduced in tumor size by over 50%” value in the test with terminal cancer patients (of 40 terminal cancer patients) is recorded as 12. Also, in the test on Microtubule, the “red fluorescence intensity of β-tubulin” value is reported as “increased” and the microtubule polymerization entry is on record as “induced”. In addition, the cell elongation result in test [6] (setting [9]) is listed as “didn't induce”.

As for `C[C@@H]1NC(=O)[C@H](C[C@@](C)(O)CO)NC(=O)[C@@H]2Cc3c([nH]c4ccccc34)SC[C@H](NC(=O)[C@@H]([C@H](C)O)NC1=O)C(=O)N1C[C@@H](O)C[C@H]1C(=O)N[C@@H](C)C(=O)N2` [phalloidin] (cyclo(A[dT]C[cisHyp]A[Trp(2-yl)][Leu(4R-OH,5-OH)]); thioether 3-6), in test [6] (A549, 24 hours), the cell elongation entry was “caused the cell elongation”. For the same compound, the “green fluorescence intensity of F-actin” value in the test on F-actin (A549, 24 hours) is “increased”. The actin depolymerization entry in the test with F-actin (setting [10]) is recorded as “inhibit”.
